Columns and labels:
NIH/Swiss female mice = test: OGTT DOA (oral glucose tolerance test for duration of action); format: in vivo, mouse; settings: for % Glucose Lowering Compared to Vehicle: 25 nmol/kg IP at t=-1 day, glucose gavage 1.5 g/kg at t=0, blood glucose at 30 min, 24 hours post dose
Method: In vivo assays for activity and duration of action and pharmacokinetics can be done using known methods. For example, duration can be performed using an oral glucose tolerance test (OGTT) in which the drug is administered to the subject at a desired time point before the glucose is administered orally (to measure drug duration of action; OGTT DOA) and glucose blood levels are measured (e.g. readily done in mice). Activity and duration can also be measured using an intravenous glucose tolerance test (IVGTT) in which the drug is administered to the subject at a desired time point before the glucose is administered IV (IVGTT DOA) and blood glucose levels are measured (e.g. can readily be done in rats). Preferred engineered compounds have a desired effect on blood glucose of at least 24 hours duration after a single dose of drug, preferably at least 3 days, at least 4 days, at least 5 days, at least 6 days, and at least 1 week after the single dose of drug is given.
The effects on blood glucose prior to glucose gavage ([…]) and at 30 minutes post-glucose gavage were investigated 1 day post dose of peptide compound with varying amounts of Cmpd 15, with results shown in FIGS. 1A-1B. Bars represent mean±sd. Peptide was injected IP at t=−1 day. Glucose gavage (1.5 g/kg) given at t=0 to 4-hour fasted NIH/Swiss female mice. Blood glucose was measured with a OneTouch® Ultra® (LifeScan, Inc., a Johnson & Johnson Company, Milpitas, Calif.) * p<0.05 vs. vehicle control; ANOVA, Dunnett's test. This OGTT DOA indicates drug activity is present at least 24 hours after drug was administered. Exendin-4 (unconjugated) was ineffective in this assay when dosed at t-24 hours (1 day prior to the glucose assay), and even at higher doses.
The effects on blood glucose prior to gavage ([…]) and at 30 min were investigated 2 day post dose with varying amounts of Cmpd 15, with results shown in FIGS. 2A-2B. This OGTT DOA indicates drug activity is present at least 48 hours after drug was administered.
A comparison of the effects of Cmpds 15 and 8 on blood glucose was conducted, with results depicts in FIGS. 3A-3B. This OGTT DOA indicates drug activity is present at least 24 hours after drug was administered.
The effects of Cmpds 15, 8 and 10 on the change in blood glucose at 30 min (% pre-gavage) was investigated, as depicted in FIG. 7. In the figure, bars represent mean±s.d. Test compound was injected IP at t=−1 day. Glucose gavage (1.5 g/kg) given at t=0 to 4 hr fasted NIH/Swiss female mice. Blood glucose was measured as described herein. This OGTT DOA indicates drug activity is present at least 24 hours after drug was administered.
The effects of compounds disclosed herein on the change in blood glucose at 30 min (% pre-gavage) were investigated as described above. Test compound was injected IP at t=−1 day at 25 nmol/kg. Glucose gavage (1.5 g/kg) given at t=0 to 4 hr fasted NIH/Swiss female mice. Blood glucose was measured as described herein. This OGTT DOA indicates drug activity is present at least 24 hours after drug was administered. […] Exendin-4 (unconjugated) was ineffective in this assay when dosed at t-24 hours, and even at higher doses. […] Cmpd 22 with an albumin binding sequence the PAB protein from P. magnus had little if any […] (3%) in the above assay.

ob/ob mice = test: Effect on body weight, glucose and HbA1c in ob/ob mice after single sc dose; format: in vivo, mouse; settings: non-fasted male ob/ob mice; Cmpd 15 at 250 nmol/kg sc on day 0
Method: The time course of the effect of Cmpd 15 on body weight, glucose and HbA1c in ob/ob mice was investigated post dose. […] Changes in glucose (% pre-treatment) and in HbA1c (% pre-treatment) are depicted in FIGS. 5B-5C. Points represent mean±s.d. (standard deviation). Cmpd 15 was injected sc on day=0 immediately following baseline sample collection in non-fasted male ob/ob mice. Unless indicated otherwise, blood glucose measures described herein employed a OneTouch® Ultra® device (LifeScan, Inc. Miliptas, Calif.).

[1] = Stability in human plasma; format: in vitro ADME; settings: 10 μg/ml in human plasma, 37 degrees C, 5 hours; normalized to a standard (100%)
[2] = tested on: renal cortical tubular epithelial cells; test: Kidney vacuolization histopathology; format: in vivo, mouse; settings: C57BL6 female mice, sc injection days 0-6, sacrifice day 7
Method: With some drugs, such as some pegylated proteins, undesirable vacuoles can form in cytoplasm of epithelial cells lining the proximal convoluted tubules, which is an undesirable toxicity measure. […] C57BL6 female mice (n=2 cages, 3 mice/cage) were weighed daily 3 hours prior to lights out. Immediately after weighing, on days 0-6 mice were injected subcutaneously with test compound. Mice were sacrificed on day 7 and kidneys submitted for histopathology. […] A positive control compound known to cause vacuole formation was scored as 3. The ABD polypeptide itself scored 0. Cmpd 15 scored 0.

diabetic ob/ob mice = test: Chronic exposure in diabetic ob/ob mice (twice weekly, 28 days); format: in vivo, mouse
Method: The time course of the effect of the test compound on body weight, glucose lowering and HbA1c lowering in ob/ob mice was investigated post dose, with values at 4 weeks presented in FIGS. 11A, 11B, 11C and 11D. […] Points represent mean±s.d. (standard deviation). Each test compound was injected IP on day=0 immediately following baseline sample collection in non-fasted male ob/ob mice. The effects observed for the 25 nmol/kg biw (twice weekly) dose was greater than that observed for exendin-4 given at ˜7.2 nmol/kg/d by continuous infusion (CSI), a dose known to provide a maximal efficacy for exendin-4. […] Unless indicated otherwise, blood glucose measures described herein employed a OneTouch® Ultra® device (LifeScan, Inc. Miliptas, Calif.).

[3] = Pharmacokinetic profile after subcutaneous dosing in normal HSD rats; format: in vivo, rat; settings: 25 nmol/kg single dose
Method: Blood was collected via tail bleed at t=1 hour, 3 hours, 6 hours, 24 hours, 48 hours, 72 hours, 96 hours and 168 hours from fed HSD male rats. Food and body weights were measured daily. […] Points represent mean±sd.

db/db mice = test: Oral delivery (gavage) in diabetic db/db mice, blood glucose; settings: PBS/propylene glycol (50:50)
[4] = tested on: human kidney brush border membrane protein extracts; test: Human kidney brush border membrane (KBBM) stability assay; format: in vitro ADME; settings: hKBBM, 30 microM peptide, 37 degrees C, 5 hours; relative to positive control
Method: Relative stability of representative peptides in a human kidney brush border membrane (KBBM) assay was performed as follows. Human kidney brush border membrane protein extracts are rich in various peptidases. […] In a separate vial, peptide stock solution (300 microM in 50% acetonitrile in water) was prepared and 70 microL of this solution was added to the above hKBBMP solution. The solution was gently mixed by manual shaking so that the final peptide concentration is 30 microM. Then 100 microL of this solution was aliquoted into six different tubes and into one tube 200 microL of enzyme stop solution (50% acetonitrile in water with 0.1% TFA) was added. This tube was used for the measurement of the initial peptide concentration at time t=0 minute while all other 5 tubes were incubated at 37 degrees C. using a water bath. At intervals of 1, 2, 3, 4 and 5 hour, each tube was taken out and quenched with 200 microL of stop solution. Finally, all six tubes were centrifuged at 1800×g for 10 min to remove any precipitated proteins. The supernatant (10 microL) was transferred into an HPLC auto sampler, and by using selected ion count method AUC was measured. Each sample was run in triplicates and average AUC was calculated for data analysis. Sample analysis was done on Agilent HPLC with mass detector with an acetonitrile with 0.1% TFA gradient. […]

[5] = 25 and 250 nmol/kg IP twice each week for 28 days

HGEGTFTSDLSKQMEEEAVRLFIEWLKNGGSLAEAKVLANRELDKYGVSDFYKRLINKAKTVEGVEALKLHILAALP [Cmpd 32]
glucose lowering activity when dosed 24 hours before the OGTT (in words) (NIH/Swiss female mice; dosed IP at t=-1 day): no glucose lowering

HGEGTFTSDLSKQLEEEAVRLFIEWLKQGGPSKEIISTGGGGSASLAEAKVLANRELDKYGVSDFYKRLINKAKTVEGVEALKLHILAALP [Cmpd 15]
% Glucose Lowering Compared to Vehicle (NIH/Swiss female mice): −21% | effect on body weight (ob/ob mice): significant body weight loss | Percent Stable in Human Plasma [1]: 96.0% | Severity score for cytoplasmic vacuolation of renal cortical tubular epithelial cells [2]: 0 | effects compared to maximally efficacious dose of exendin-4 (7.2 nmol/kg/d CSI) (diabetic ob/ob mice; 25 nmol/kg biw, comparable equimolar dose): exceeded the glycemic and body weight loss effects of the maximally efficacious dose of exendin-4 | effects compared to maximally efficacious dose of exendin-4 (diabetic ob/ob mice; 250 nmol/kg biw): significantly greater | HbA1c lowering (% change from baseline) (diabetic ob/ob mice; [5]): significant HbA1c lowering | body weight loss (% change from baseline) (diabetic ob/ob mice; [5]): significant body weight loss | HbA1c lowering and body weight loss compared to liraglutide (diabetic ob/ob mice; equimolar dosing to liraglutide, data not shown): more effective than liraglutide | glucose lowering compared to liraglutide (diabetic ob/ob mice; equimolar dosing, twice weekly (BIW), chronic exposure): superior to liraglutide | apparent half-life [3]: 54 h | blood glucose lowering activity after oral dosing (db/db mice; 240 nmol/kg peroral gavage, to 120 minutes, 2-hour fasted db/db mice): active when dosed orally | oral bioavailability (db/db mice; peroral gavage, 1 mg/kg): orally bioavailable

HGEGTFTSDLSKQMEEEAVRLFIEWLKNTGGGGSASLAEAKVLANRELDKYGVSDFYKRLINKAKTVEGVEALKLHILAALP [Cmpd 10]
% Glucose Lowering Compared to Vehicle (NIH/Swiss female mice): −22%

HGEGTFTSDLSKQLEEEAVRLFIEWLKQGGPSKEIISGGSLAEAKVLANRELDKYGVSDFYKRLINKAKTVEGVEALKLHILAALP [Cmpd 33]
% Glucose Lowering Compared to Vehicle (NIH/Swiss female mice): −19%

HGEGTFTSDLSKQLEEEAVRLFIEWLKQGGPSKEIISTGGGGSGGGSGGGSGGGSASLAEAKVLANRELDKYGVSDFYKRLINKAKTVEGVEALKLHILAALP [Cmpd 8]
% Glucose Lowering Compared to Vehicle (NIH/Swiss female mice): −21%

CC[C@H](C)[C@H](NC(=O)[C@H](Cc1ccccc1)NC(=O)[C@H](CCC(=O)O)NC(=O)[C@H](CCCCN)NC(=O)[C@H](C)NC(=O)[C@H](C)NC(=O)[C@H](CCC(N)=O)NC(=O)CNC(=O)[C@H](CCC(=O)O)NC(=O)[C@H](CC(C)C)NC(=O)[C@H](Cc1ccc(O)cc1)NC(=O)[C@H](CO)NC(=O)[C@H](CO)NC(=O)[C@@H](NC(=O)[C@H](CC(=O)O)NC(=O)[C@H](CO)NC(=O)[C@@H](NC(=O)[C@H](Cc1ccccc1)NC(=O)[C@@H](NC(=O)CNC(=O)[C@H](CCC(=O)O)NC(=O)[C@H](C)NC(=O)[C@@H](N)Cc1c[nH]cn1)[C@@H](C)O)[C@@H](C)O)C(C)C)C(=O)N[C@@H](C)C(=O)N[C@@H](Cc1c[nH]c2ccccc12)C(=O)N[C@@H](CC(C)C)C(=O)N[C@H](C(=O)N[C@@H](CCCCN)C(=O)NCC(=O)N[C@@H](CCCNC(=N)N)C(N)=O)C(C)C [GLP-1(7-36) amide, reference compound]
Percent Stable in Human Plasma [1]: 41.7% | Percent Stable [4]: 16%

Source: US9593154B2, “Engineered polypeptides having enhanced duration of action” (AMYLIN PHARMACEUTICALS, LLC, priority 2010, dated 2017)
